These results are taken from patent US20110065896A1, “POLYETHER POLYOL DENDRON CONJUGATES WITH EFFECTOR MOLECULES FOR BIOLOGICAL TARGETING” (MIVENION GMBH, priority 2008, published 2011).

Series [1] is described as follows: Fluorescence quantum yield of dendron dye in comparison to precursor dye. The class given is physicochemical. The source says:
Fluorescence quantum yield of title compound of example 4a in comparison to precursor dye dendron bis-1,1′-(4-sulfobutyl)indotricarbocyanine-5,5′-dicarboxylic acid, sodium salt

A short description of series [2]: Investigation of solubilities in PBS by observation of precipitates. The class given is physicochemical. The conditions noted are these: conjugate solutions in PBS obtained in examples 10b and 10c, on storage. How it is done: Conjugation with IgG antibody: To a solution of 1 mg antibody (IgG from bovine serum; Sigma, >95%, salt free, powder) in […] of phosphate-buffered saline (PBS, pH 7.4) is given […] (32 μL) of a solution of 0.5 mg of N-hydroxysuccinimidyl ester of example 9 in 0.1 mL water. The mixture is shaken at 25° C. for 24 h in the dark. Purification is achieved by filtration via a NAP10 column (Pharmacia) using PBS as eluent. As control conjugate, pyropheophorbide a —NHS-ester is used for conjugation with IgG giving IgG-pyropheo conjugate.
Conjugation with bovine serum albumine (BSA): To a solution of 1 mg BSA (Sigma, fraction V, >98%, powder) in […] of phosphate-buffered saline (PBS, pH 7.4) is given […] (70 μL) of a solution of 0.5 mg of N-hydroxysuccinimidyl ester of example 9 in 0.1 mL water. The mixture is shaken at 25° C. for 24 h in the dark. Purification is achieved by filtration via a NAP 10 column (Pharmacia) using PBS as eluent.
Investigation of solubilities in PBS by observation of precipitates from the solutions obtained in examples 10b and 10c: […]

As to `CC1(C)C(=CC=CC=CC=CC2=[N+](CCCCS(=O)(=O)[O-])c3ccc(C(=O)O)cc3C2(C)C)N(CCCCS(=O)(=O)[O-])c2ccc(C(=O)O)cc21.[Na+]` [Precursor dye, bis-1,1′-(4-sulfobutyl)indotricarbocyanine-5,5′-dicarboxylic acid, sodium salt], the Fluorescence quantum yield in series [1] (MeOH) was 0.14; in series [1] (PBS), 0.07.

As for “BSA-pyropheo: control conjugate: pyropheophorbide a NHS-ester conjugated with BSA”, the “Solubility in PBS by observation of precipitates” value in series [2] is “immediate precipates”.
